Active and inactive are the calls of the source. No cut-off for these calls is given here.
How the values were obtained:
LoVo [1] = test: Induction of DNA damage in human LoVo cells deficient in ATM at 1 uM measured after 3 days by immunofluorescence assay; type: functional, cell-based; conditions: time 3.0 day
HT-29 [2] = test: Induction of apoptosis in human HT-29 cells assessed as viable cells at 1 uM measured after 48 hrs in presence of AZD1390 by Annexin V-FITC/Propidium iodide staining based flow cytometry analysis (reference value: 95.33%); type: functional; conditions: read-out: Activity
A549 = test: Antiproliferative activity against ATM proficient human A549 cells assessed as reduction in cell viability incubated for 72 hrs by MTT assay; type: functional, cell-based; conditions: dose 0.001-100 µM, DDE = dose-dependent effect
Granta-519 = test: Antiproliferative activity against ATM-deficient human Granta-519 cells assessed as reduction in cell viability incubated for 72 hrs by MTT assay; type: functional, cell-based; conditions: dose 0.001-100 µM, DDE = dose-dependent effect
SW-620 = test: Antiproliferative activity against ATM-deficient human SW-620 cells assessed as reduction in cell viability incubated for 72 hrs by MTT assay; type: functional, cell-based; conditions: dose 0.001-100 µM, DDE = dose-dependent effect
HepG2 = test: Antiproliferative activity against ATM proficient human HepG2 cells assessed as reduction in cell viability incubated for 72 hrs by MTT assay; type: functional, cell-based; conditions: dose 0.001-100 µM, DDE = dose-dependent effect
[3] = biological target: T1, Serine/threonine-protein kinase ATR (Homo sapiens, UniProt Q13535); test: Inhibition of ATR signalling in ATM-deficient human LoVo cells assessed as inhibition of ATR phosphorylation incubated for 1 hr followed by hydroxyurea addition measured after 4 hrs by Western blot analysis; type: cell-based; conditions: dose <= 3.0 µM, time 5.0 hrs, DDE = dose-dependent effect
T1 sequence (Q13535 whole entry, looked up): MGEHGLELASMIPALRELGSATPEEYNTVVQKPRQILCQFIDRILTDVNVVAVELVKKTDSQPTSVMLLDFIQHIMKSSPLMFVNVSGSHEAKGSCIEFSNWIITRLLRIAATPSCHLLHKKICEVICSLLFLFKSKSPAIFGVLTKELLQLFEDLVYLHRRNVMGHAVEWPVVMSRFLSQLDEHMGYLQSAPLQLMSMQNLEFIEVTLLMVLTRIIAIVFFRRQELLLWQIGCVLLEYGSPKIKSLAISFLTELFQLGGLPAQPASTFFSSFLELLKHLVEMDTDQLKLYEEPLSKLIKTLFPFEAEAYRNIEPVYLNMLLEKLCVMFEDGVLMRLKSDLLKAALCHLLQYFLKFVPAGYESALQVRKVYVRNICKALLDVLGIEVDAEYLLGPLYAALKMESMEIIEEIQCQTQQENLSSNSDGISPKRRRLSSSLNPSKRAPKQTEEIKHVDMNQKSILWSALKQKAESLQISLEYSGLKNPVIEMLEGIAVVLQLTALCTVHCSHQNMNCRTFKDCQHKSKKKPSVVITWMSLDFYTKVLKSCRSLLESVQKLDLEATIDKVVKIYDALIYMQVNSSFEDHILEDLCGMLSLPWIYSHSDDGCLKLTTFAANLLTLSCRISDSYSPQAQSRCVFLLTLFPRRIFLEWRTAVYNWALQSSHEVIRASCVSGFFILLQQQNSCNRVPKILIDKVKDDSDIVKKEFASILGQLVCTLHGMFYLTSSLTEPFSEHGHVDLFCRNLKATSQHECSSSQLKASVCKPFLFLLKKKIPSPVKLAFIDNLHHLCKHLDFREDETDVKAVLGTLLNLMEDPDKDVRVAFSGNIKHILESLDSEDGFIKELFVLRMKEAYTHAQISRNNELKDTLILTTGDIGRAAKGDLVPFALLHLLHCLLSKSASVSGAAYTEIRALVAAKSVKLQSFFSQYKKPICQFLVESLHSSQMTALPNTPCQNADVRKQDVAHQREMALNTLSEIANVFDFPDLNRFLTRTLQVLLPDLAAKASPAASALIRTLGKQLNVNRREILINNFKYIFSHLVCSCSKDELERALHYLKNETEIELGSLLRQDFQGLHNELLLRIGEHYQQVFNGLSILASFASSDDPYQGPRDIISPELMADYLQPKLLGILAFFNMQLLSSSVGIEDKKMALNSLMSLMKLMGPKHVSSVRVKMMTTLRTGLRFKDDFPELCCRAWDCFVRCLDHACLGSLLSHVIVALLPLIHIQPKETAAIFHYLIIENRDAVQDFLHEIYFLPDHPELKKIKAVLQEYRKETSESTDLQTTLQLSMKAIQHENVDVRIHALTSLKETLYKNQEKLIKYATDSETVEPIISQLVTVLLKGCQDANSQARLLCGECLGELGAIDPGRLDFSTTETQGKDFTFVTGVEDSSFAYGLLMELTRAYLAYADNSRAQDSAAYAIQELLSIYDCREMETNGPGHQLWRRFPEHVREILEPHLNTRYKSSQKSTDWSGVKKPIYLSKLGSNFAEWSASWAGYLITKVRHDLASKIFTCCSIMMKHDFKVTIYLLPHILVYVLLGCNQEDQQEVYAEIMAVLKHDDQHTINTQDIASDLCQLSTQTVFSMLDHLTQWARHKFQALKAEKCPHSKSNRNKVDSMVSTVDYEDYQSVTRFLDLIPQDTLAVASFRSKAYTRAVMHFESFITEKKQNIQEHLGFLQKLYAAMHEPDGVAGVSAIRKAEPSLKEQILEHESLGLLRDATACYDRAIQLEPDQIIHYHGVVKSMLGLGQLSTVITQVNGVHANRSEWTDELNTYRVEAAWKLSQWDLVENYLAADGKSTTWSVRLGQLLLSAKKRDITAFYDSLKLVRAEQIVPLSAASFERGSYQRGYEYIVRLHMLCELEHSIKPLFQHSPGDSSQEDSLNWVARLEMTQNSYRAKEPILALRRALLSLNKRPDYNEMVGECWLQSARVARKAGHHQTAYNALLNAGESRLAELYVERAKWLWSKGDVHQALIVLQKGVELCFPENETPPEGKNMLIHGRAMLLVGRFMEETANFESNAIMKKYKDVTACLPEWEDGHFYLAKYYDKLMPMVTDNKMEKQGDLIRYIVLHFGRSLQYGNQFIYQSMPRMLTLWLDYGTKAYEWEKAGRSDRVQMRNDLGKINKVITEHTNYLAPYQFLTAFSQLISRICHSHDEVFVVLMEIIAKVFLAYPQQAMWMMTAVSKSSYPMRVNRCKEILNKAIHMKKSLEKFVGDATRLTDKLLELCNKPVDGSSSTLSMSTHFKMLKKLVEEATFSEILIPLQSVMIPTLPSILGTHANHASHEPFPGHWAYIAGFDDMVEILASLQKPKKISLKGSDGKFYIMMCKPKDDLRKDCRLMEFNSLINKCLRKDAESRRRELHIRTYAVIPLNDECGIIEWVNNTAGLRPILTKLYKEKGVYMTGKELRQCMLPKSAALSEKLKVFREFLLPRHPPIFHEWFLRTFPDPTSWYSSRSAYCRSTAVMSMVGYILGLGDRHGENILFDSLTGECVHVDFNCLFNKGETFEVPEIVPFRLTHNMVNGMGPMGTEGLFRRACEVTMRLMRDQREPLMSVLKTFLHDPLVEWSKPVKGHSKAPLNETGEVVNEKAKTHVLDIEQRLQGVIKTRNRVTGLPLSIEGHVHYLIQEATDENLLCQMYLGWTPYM

LoVo [4] = test: Induction of apoptosis in human LoVo cells deficient in ATM assessed as late apoptotic cells at 0.3 uM measured after 24 hrs by Annexin V-FITC/Propidium iodide staining based flow cytometry analysis (reference value: 3.32%); type: functional
LoVo [5] = test: Induction of apoptosis in human LoVo cells deficient in ATM assessed as early apoptotic cells at 1 uM measured after 24 hrs by Annexin V-FITC/Propidium iodide staining based flow cytometry analysis (reference value: 4.20%); type: functional
LoVo [6] = test: Induction of apoptosis in human LoVo cells deficient in ATM assessed as viable cells at 1 uM measured after 24 hrs by Annexin V-FITC/Propidium iodide staining based flow cytometry analysis (reference value: 91.64%); type: functional; conditions: read-out: Activity
LoVo [7] = test: Induction of apoptosis in human LoVo cells deficient in ATM assessed as necrotic cells at 1 uM measured after 24 hrs by Annexin V-FITC/Propidium iodide staining based flow cytometry analysis (reference value: 0.84%); type: functional
LoVo [8] = test: Induction of apoptosis in human LoVo cells deficient in ATM assessed as early apoptotic cells at 3 uM measured after 24 hrs by Annexin V-FITC/Propidium iodide staining based flow cytometry analysis (reference value: 4.20%); type: functional
HT-29 [9] = test: Induction of apoptosis in human HT-29 cells assessed as early apoptotic cells at 0.3 uM measured after 48 hrs by Annexin V-FITC/Propidium iodide staining based flow cytometry analysis (reference value: 1.55%); type: functional
HT-29 [10] = test: Induction of apoptosis in human HT-29 cells assessed as late apoptotic cells at 0.3 uM measured after 48 hrs by Annexin V-FITC/Propidium iodide staining based FACS cytometry analysis (reference value: 0.71%); type: functional
HT-29 [11] = test: Induction of apoptosis in human HT-29 cells assessed as necrotic cells at 3 uM measured after 48 hrs by Annexin V-FITC/Propidium iodide staining based flow cytometry analysis (reference value: 0.73%); type: functional
HT-29 [12] = test: Induction of apoptosis in human HT-29 cells assessed as viable cells at 0.3 uM measured after 48 hrs in presence of AZD1390 by Annexin V-FITC/Propidium iodide staining based flow cytometry analysis (reference value: 95.33%); type: functional; conditions: read-out: Activity
HT-29 [13] = test: Induction of apoptosis in human HT-29 cells assessed as necrotic cells at 1 uM measured after 48 hrs in presence of AZD1390 by Annexin V-FITC/Propidium iodide staining based flow cytometry analysis (reference value: 0.23%); type: functional
HT-29 [14] = test: Induction of apoptosis in human HT-29 cells assessed as early apoptotic cells at 3 uM measured after 48 hrs in presence of AZD1390 by Annexin V-FITC/Propidium iodide staining based flow cytometry analysis (reference value: 3.81%); type: functional
HT-29 [15] = test: Induction of apoptosis in human HT-29 cells assessed as late apoptotic cells at 3 uM measured after 48 hrs in presence of AZD1390 by Annexin V-FITC/Propidium iodide staining based flow cytometry analysis (reference value: 0.63%); type: functional
[16] = Half life in Sprague-Dawley rat at 10 mg/kg, po measured at 0.083 to 24 hrs by LC-MS/MS method; type: ADME, organism-based; conditions: in vivo, time 0.083-24 hrs
[17] = Tmax in Sprague-Dawley rat at 10 mg/kg, po measured at 0.083 to 24 hrs by LC-MS/MS method; type: ADME, organism-based; conditions: in vivo, time 0.083-24 hrs
[18] = Cmax in Sprague-Dawley rat at 10 mg/kg, po measured at 0.083 to 24 hrs by LC-MS/MS method; type: ADME, organism-based; design: time 0.083-24 hrs, dose 10 mg/kg, route po; conditions: in vivo
[19] = AUC (0 to infinity) in Sprague-Dawley rat at 10 mg/kg, po measured at 0.083 to 24 hrs by LC-MS/MS method; type: ADME, organism-based; design: time lower 0.083 hrs, dose 10 mg/kg, time upper 24 hrs, route po; conditions: in vivo
[20] = Clearance in Sprague-Dawley in rat at 5 mg/kg, iv measured at 0.083 to 24 hrs by LC-MS/MS method; type: ADME, organism-based; conditions: in vivo, time 0.083-24 hrs
[21] = Volume of distribution at steady state in Sprague-Dawley rat at 5 mg/kg, iv measured at 0.083 to 24 hrs by LC-MS/MS method; type: ADME, organism-based; conditions: in vivo, time 0.083-24 hrs, read-out: Vdss
[22] = Toxicity in NOD/SCID mouse xenografted with human LoVo cells assessed as body weight loss at 50 to 100 mg/kg, po administered bid for 30 days; type: organism-based; conditions: in vivo, 720 h, dose 50-100 mg/kg, time 30 day
[23] = Toxicity in NOD/SCID mouse xenografted with human LoVo cells assessed as damage in liver at 50 to 100 mg/kg, po administered bid for 30 days measured after 2 hrs post last dose by H and E staining method; type: organism-based; conditions: in vivo, 720 h, dose 50-100 mg/kg, time 30 day
[24] = Toxicity in NOD/SCID mouse xenografted with human LoVo cells assessed as damage in lung at 50 to 100 mg/kg, po administered bid for 30 days measured after 2 hrs post last dose by H and E staining method; type: organism-based; conditions: in vivo, 720 h, dose 50-100 mg/kg, time 30 day
HT-29 [25] = test: Induction of DNA damage in human HT-29 cells proficient in ATM at 1 uM measured after 3 days in presence of AZD1390 by immunofluorescence assay; type: functional, cell-based; conditions: time 3.0 day
[26] = biological target: T1, Serine/threonine-protein kinase ATR; test: Inhibition of ATR signalling in ATM-deficient human LoVo cells assessed as change in expression of ATR at up to 3 uM incubated for 1 hr followed by hydroxyurea addition measured after 4 hrs by Western blot analysis; type: cell-based; conditions: time 5.0 hrs
LoVo [27] = test: Antimigratory activity in human LoVo cells assessed as suppression of cell migration measured at up to 1 uM by wound healing assay; type: functional, cell-based; conditions: time <= 48.0 hrs, TDE = time-dependent effect

C[C@@H]1COCCN1c1nc(-c2cccc3[nH]ccc23)nc2ccc(-c3ccnn3C)cc12
Activity (LoVo [1]): Active | viability at 1 µM (HT-29 [2]): 80.9% | Activity (A549): Dde | Activity (Granta-519): Dde | Activity (SW-620): Dde | Activity (HepG2): Dde | inhibition [3]: Dde | Activity (LoVo [4]): 17.38% | Activity (LoVo [5]): 28.91% | viability at 1 µM (LoVo [6]): 47.8% | Activity (LoVo [7]): 2.39% | Activity (LoVo [8]): 27.07% | Activity (HT-29 [9]): 1.47% | Activity (HT-29 [10]): 1.51% | Activity (HT-29 [11]): 1.71% | viability at 0.3 µM (HT-29 [12]): 79% | Activity (HT-29 [13]): 2.1% | Activity (HT-29 [14]): 15.88% | Activity (HT-29 [15]): 20.78% | half-life [16]: 68.4 min | Tmax [17]: 1.67 h | Cmax [18]: 895 ng/mL | AUC(0-inf) [19]: 2720 ng·h/mL | clearance [20]: 26.5 mL/min/kg | Vd [21]: 2.03 L/kg | Activity [22]: Non-Toxic | Activity [23]: Non-Toxic | Activity [24]: Non-Toxic | Activity (HT-29 [25]): Active | inhibition [26]: Active | Activity (LoVo [27]): Tde

Source: ChEMBL document CHEMBL5154749 (Eur J Med Chem, 2022)
